The text below walks through data of US20100048640A1, “HYDRAZIDE COMPOUND AND HARMFUL ARTHROPOD-CONTROLLING AGENT CONTAINING THE SAME” (Sumitomo Chemical Company, Limited, priority 2007, published 2010).

Each structure is given as a SMILES string. Some results are limits rather than exact numbers.

In general, pest or weed control refers to the degree to which the test organism was suppressed or injured, in per cent. A low value points to a weak effect.

Common to all, as to assay type: in vivo
The test system of experiment [1] is diamondback moths (Plutella xylostella). The experiment is described as follows: Test Example 1: cabbage foliar spray, diamondback moth larvae, controlling value. Particulars: 120 h, flowable formulation, 20 mL/cup on cabbage, third-instar larvae, after 5 days; for pest or weed control at 500 ppm: 500 ppm active ingredient; for pest or weed control at 200 ppm: 200 ppm active ingredient. How it is done:
Thus, test spray solutions were prepared. On the other hand, cabbage was planted in a polyethylene cup, and grown until the third true leaf or the fourth true leaf was developed. The test spray solution as described above was sprayed in an amount of 20 mL/cup on the cabbage. After the spray solution on the cabbage was dried, 10 third-instar larvae of diamondback moths (Plutella xylostella) were placed on the cabbage. After 5 days, the number of diamondback moths was counted, and the controlling value was calculated by the following equation. Controlling value(%)={1−(Cb×Tai)/(Cai×Tb))×100 wherein Cb: the number of worms in an untreated group before treatment; Cai: the number of worms in an untreated group on observation; Tb: the number of worms in a treated group before treatment; Tai: the number of worms in a treated group on observation.

Experiment [2] deals with cotton aphids (Aphis gossypii). As to the kind of experiment: Test Example 2: cucumber foliar spray, cotton aphids, controlling value. Particulars: 144 h, flowable formulation, 20 mL/cup on cucumber, six days after spraying; for pest or weed control at 500 ppm: 500 ppm active ingredient; for pest or weed control at 200 ppm: 200 ppm active ingredient. How it is done: Thus, test spray solutions were prepared. On the other hand, cucumber was planted in a polyethylene cup, and was grown until the first true leaf was developed. About 30 cotton aphids (Aphis gossypii) were placed on the cucumber. One day after, the test spray solution as described above was sprayed in an amount of 20 mL/cup on the cucumber. Six days after spraying, the number of cotton aphids was counted, and a controlling value was calculated by the following equation. Controlling value(%)={1−(Cb×Tai)/(Cai×Tb))×100

The subject of experiment [3] is common cutworm (Spodoptera litura). The experiment is described as follows: Test Example 3: cabbage foliar spray, common cutworm larvae, controlling value. Particulars: 96 h, flowable formulation, 20 mL/cup on cabbage, fourth-instar larvae, after 4 days; for pest or weed control at 500 ppm: 500 ppm active ingredient; for pest or weed control at 200 ppm: 200 ppm active ingredient. On the procedure:
Thus, test spray solutions were prepared. On the other hand, cabbage was planted in a polyethylene cup, and grown until the third true leaf or the fourth true leaf was developed. The test spray solution as described above was sprayed in an amount of 20 mL/cup on the cabbage. After the spray solution sprayed on the cabbage was dried, 10 fourth-instar larvae of common cutworm (Spodoptera litura) were placed on the cabbage. After 4 days, the number of common cutworm surviving on the cabbage leaves was counted, and a controlling value was calculated by the following equation. Controlling value(%)={1−(Cb×Tai)/(Cai×Tb))×100

In experiment [4] the test system is summer fruit tortrix (Adoxophyes orana fasciata). As to the kind of experiment: Test Example 4: apple seedling spray, summer fruit tortrix larvae, controlling value. Particulars: 168 h, flowable formulation, 20 mL on apple seedling, first-instar larvae, seven days after spraying; for pest or weed control at 500 ppm: 500 ppm active ingredient; for pest or weed control at 200 ppm: 200 ppm active ingredient. On the procedure:
Thus, test spray solutions were prepared. On the other hand, 20 mL of the test spray solution as described above was sprayed to an apple seedling (28 day-old seeding; tree height: about 15 cm) planted in a plastic cup. The apple seedling was air-dried to such an extent that the spray solution sprayed on the apple seedling was dried, and about 30 first-instar larvae of summer fruit tortrix (Adoxophyes orana fasciata) were released. Seven days after spraying, the number of worms surviving on the apple seedling was counted, and a controlling value was calculated by the following equation. Controlling value(%)={1−(Cb×Tai)/(Cai×Tb))×100

Experiment [5] concerns yellow citrus thrips (Franklinella occidentalis). The experiment is described as follows: Test Example 5: cucumber leaf spray, yellow citrus thrips larvae, controlling value. Particulars: 168 h, flowable formulation, 20 mL/cup on cucumber, cut first true leaf, 20 larvae, leaf area damaged, seven days after spraying; for pest or weed control at 500 ppm: 500 ppm active ingredient; for pest or weed control at 200 ppm: 200 ppm active ingredient. On the procedure: Thus, test spray solutions were prepared. On the other hand, cucumber was planted in a polyethylene cup, and was grown until the first true leaf was developed. The test spray solution as described above was sprayed in an amount of 20 mL/cup on the cucumber. After the spray solution on the cucumber was dried, the first true leaf was cut and then placed on a filter paper (diameter: 70 mm) containing water in a polyethylene cup (diameter: 110 mm). On the cucumber leaf, 20 larvae of yellow citrus thrips ([…] occidentalis) were released, and the polyethylene cup was capped. Seven days after spraying, the percentage of leaf area damaged by the insect was examined and a controlling value was calculated by the following equation. Controlling value(%)={1-(Cb×Tai)/(Cai×Tb))×100

Regarding `C=CCN(NC(=O)c1cc(Cl)cc(Cl)c1NC(=O)c1cc(Br)nn1-c1ncccc1Cl)C(=O)OC` [1-10], the pest or weed control at 500 ppm in experiment [1] is 100%; in experiment [2], no less than 90%; in experiment [3] it was no less than 80%; in experiment [4], 100%; in experiment [5], 100%.

As for `COC(=O)NN(CCO)C(=O)c1cc(Br)cc(Br)c1NC(=O)c1cc(Br)nn1-c1ncccc1Cl` [1-61], the pest or weed control at 500 ppm is 100% in experiment [1], no less than 90% in experiment [2], no less than 80% in experiment [3] and 100% in experiment [5].

For the molecule `C=CCN(NC(=O)OC)C(=O)c1cc(Br)cc(Br)c1NC(=O)c1cc(Br)nn1-c1ncccc1Cl` [1-7], the pest or weed control at 500 ppm in experiment [1] is 100%; in experiment [2], no less than 90%; in experiment [3], no less than 80%; in experiment [4] it was 100%; in experiment [5], 100%.

With `COC(=O)N(NC(=O)c1cc(Br)cc(Br)c1NC(=O)c1cc(Br)nn1-c1ncccc1Cl)c1ccccn1` [1-5], the pest or weed control at 500 ppm in experiment [1] was 100%; in experiment [2], no less than 90%; in experiment [3] it was no less than 80%; in experiment [4], 100%; in experiment [5], 100%.

Regarding `C=CCN(NC(=O)c1cc(Cl)cc(C)c1NC(=O)c1cc(Br)nn1-c1ncccc1Cl)C(=O)OC` [1-12], the pest or weed control at 500 ppm was 100% in experiment [1]; no less than 90% in experiment [2]; no less than 80% in experiment [3]; 100% in experiment [4]; 100% in experiment [5].

Consider `C=CCN(NC(=O)OC)C(=O)c1cc(Cl)cc(C)c1NC(=O)c1cc(Br)nn1-c1ncccc1Cl` [1-11], for which the pest or weed control at 200 ppm is 100% in experiment [1], no less than 90% in experiment [2], no less than 80% in experiment [3] and 100% in experiment [4].

With `COC(=O)NN(CC=C(Cl)Cl)C(=O)c1cc(Br)cc(Br)c1NC(=O)c1cc(Br)nn1-c1ncccc1Cl` [1-63], the pest or weed control at 500 ppm in experiment [1] is 100%; in experiment [2], no less than 90%; in experiment [3] it was no less than 80%; in experiment [4], 100%; in experiment [5], 100%.

With `COC(=O)N(NC(=O)c1cc(Cl)cc(C)c1NC(=O)c1cc(Br)nn1-c1ncccc1Cl)C1CCCCC1` [1-60], the pest or weed control at 500 ppm in experiment [1] was 100%; in experiment [3] it was no less than 80%; in experiment [4], 100%.

As to `COC(=O)NN(Cc1ccccc1)C(=O)c1cc(Cl)cc(C)c1NC(=O)c1cc(Br)nn1-c1ncccc1Cl` [1-57], the pest or weed control at 500 ppm was 100% in experiment [1], no less than 90% in experiment [2], no less than 80% in experiment [3] and 100% in experiment [5].

For the molecule `CCN(C(=O)c1cc(Br)cc(Br)c1NC(=O)c1cc(Br)nn1-c1ncccc1Cl)N(CC#N)C(=O)OC` [1-1], the pest or weed control at 500 ppm in experiment [1] was 100%; in experiment [2], no less than 90%; in experiment [3], no less than 80%; in experiment [4], 100%; in experiment [5] it was 100%.

Take `C=CCN(NC(=O)c1cc(Br)cc(Br)c1NC(=O)c1cc(Br)nn1-c1ncccc1Cl)C(=O)OC` [1-8]: the pest or weed control at 500 ppm in experiment [1] was 100%; in experiment [2], no less than 90%; in experiment [3], no less than 80%; in experiment [4], 100%; in experiment [5], 100%.

Turning to `COC(=O)N(NC(=O)c1cc(Br)cc(Br)c1NC(=O)c1cc(Br)nn1-c1ncccc1Cl)C1CCCCC1` [1-59], the pest or weed control at 500 ppm is 100% in experiment [1], no less than 90% in experiment [2] and no less than 80% in experiment [3].

For `C=CCN(NC(=O)OC)C(=O)c1cc(Cl)cc(Cl)c1NC(=O)c1cc(Br)nn1-c1ncccc1Cl` [1-9], the pest or weed control at 500 ppm was 100% in experiment [1]; no less than 90% in experiment [2]; no less than 80% in experiment [3]; 100% in experiment [4]; 100% in experiment [5].

In the case of `C#CCN(NC(=O)c1cc(Br)cc(Br)c1NC(=O)c1cc(Br)nn1-c1ncccc1Cl)C(=O)OC` [1-32], the pest or weed control at 200 ppm in experiment [1] is 100%; in experiment [2], no less than 90%; in experiment [3], no less than 80%; in experiment [4] it was 100%; in experiment [5], 100%.

Take `C#CCN(NC(=O)OC)C(=O)c1cc(Br)cc(Br)c1NC(=O)c1cc(Br)nn1-c1ncccc1Cl` [1-31]: the pest or weed control at 200 ppm in experiment [1] was 100%; in experiment [2] it was no less than 90%; in experiment [3], no less than 80%; in experiment [4] it was 100%; in experiment [5], 100%.

`COC(=O)N(Cc1ccccc1)NC(=O)c1cc(Cl)cc(C)c1NC(=O)c1cc(Br)nn1-c1ncccc1Cl` [1-58]: the pest or weed control at 500 ppm in experiment [1] is 100%; in experiment [2] it was no less than 90%; in experiment [3] it was no less than 80%; in experiment [5] it was 100%.

Take `COC(=O)N(NC(=O)c1cc(Cl)cc(C)c1NC(=O)c1cc(Br)nn1-c1ncccc1Cl)c1ccccn1` [1-6]: the pest or weed control at 500 ppm was 100% in experiment [1]; no less than 90% in experiment [2]; no less than 80% in experiment [3]; 100% in experiment [4]; 100% in experiment [5].

Turning to `COC(=O)N(CC=C(Cl)Cl)NC(=O)c1cc(Br)cc(Br)c1NC(=O)c1cc(Br)nn1-c1ncccc1Cl` [1-64], the pest or weed control at 500 ppm in experiment [1] was 100%; in experiment [2], no less than 90%; in experiment [3] it was no less than 80%; in experiment [4], 100%; in experiment [5], 100%.
